# According to the supplement of paper PMC10307832:
# Assays:
# Test in all cases: relative viability (nuclei count vs DMSO), 5 days (fraction); higher = more cells survive
# AZ505 + Luminespib = compound: C1CCC(CC1)N(CCNCCC2=C3C(=C(C=C2)O)NC(=O)CO3)C(=O)CCNCCC4=CC(=C(C=C4)Cl)Cl [AZ505] + CCNC(=O)c1noc(-c2cc(C(C)C)c(O)cc2O)c1-c1ccc(CN2CCOCC2)cc1 [Luminespib] (partner 0.01 µM)
# Method in brief: (§1)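 Five library-drug doses in √10 steps were combined with a fixed anchor-drug dose, or a single drug was given alone, by pin tool to lung cancer cell lines in 1536-well plates the day after seeding. Nuclei were stained and counted after 5 days. Relative viability is the nuclei count in treated wells over that in vehicle wells, taken as the median of duplicate plates.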
# Dactolisib + Pictilisib = compound: Cn1c(=O)n(-c2ccc(C(C)(C)C#N)cc2)c2c3cc(-c4cnc5ccccc5c4)ccc3ncc21 [Dactolisib] + CS(=O)(=O)N1CCN(Cc2cc3nc(-c4cccc5[nH]ncc45)nc(N4CCOCC4)c3s2)CC1 [Pictilisib] (partner 1 µM)
# Method in brief: as §1
# AZ505 + Trametinib = compound: C1CCC(CC1)N(CCNCCC2=C3C(=C(C=C2)O)NC(=O)CO3)C(=O)CCNCCC4=CC(=C(C=C4)Cl)Cl [AZ505] + CC(=O)Nc1cccc(-n2c(=O)n(C3CC3)c(=O)c3c(Nc4ccc(I)cc4F)n(C)c(=O)c(C)c32)c1 [Trametinib] (partner 0.02 µM)
# Method in brief: as §1
# Dactolisib + Olaparib = compound: Cn1c(=O)n(-c2ccc(C(C)(C)C#N)cc2)c2c3cc(-c4cnc5ccccc5c4)ccc3ncc21 [Dactolisib] + O=C(c1cc(Cc2n[nH]c(=O)c3ccccc23)ccc1F)N1CCN(C(=O)C2CC2)CC1 [Olaparib] (partner 8 µM)
# Method in brief: as §1
Cell Line,relative viability (AZ505 + Luminespib; first compound 0.08 µM),relative viability (AZ505 + Luminespib; first compound 0.253 µM),relative viability (AZ505 + Luminespib; first compound 0.8 µM),relative viability (AZ505 + Luminespib; first compound 2.53 µM),relative viability (AZ505 + Luminespib; first compound 8 µM),relative viability (Dactolisib + Pictilisib; first compound 0.002 µM),relative viability (Dactolisib + Pictilisib; first compound 0.006325 µM),relative viability (Dactolisib + Pictilisib; first compound 0.02 µM),relative viability (Dactolisib + Pictilisib; first compound 0.06325 µM),relative viability (Dactolisib + Pictilisib; first compound 0.2 µM),relative viability (AZ505 + Trametinib; first compound 0.08 µM),relative viability (AZ505 + Trametinib; first compound 0.253 µM),relative viability (AZ505 + Trametinib; first compound 0.8 µM),relative viability (AZ505 + Trametinib; first compound 2.53 µM),relative viability (AZ505 + Trametinib; first compound 8 µM),relative viability (Dactolisib + Olaparib; first compound 0.002 µM),relative viability (Dactolisib + Olaparib; first compound 0.006325 µM),relative viability (Dactolisib + Olaparib; first compound 0.02 µM),relative viability (Dactolisib + Olaparib; first compound 0.06325 µM),relative viability (Dactolisib + Olaparib; first compound 0.2 µM)
HCC-44,0.969,1.03,1.03,1.09,1.18,0.672,0.536,0.709,0.536,0.368,1.03,1.09,1.02,1.05,1.1,0.969,1.03,0.956,1.01,1.01
HCC-78,–,–,–,–,–,0.225,0.22,0.195,0.206,0.193,–,–,0.594,0.701,0.653,0.856,0.94,0.669,0.452,0.336
HCC-366,–,–,–,–,–,0.201,0.147,0.124,0.0657,0.102,0.288,0.331,0.281,0.289,0.332,0.243,0.356,0.38,0.166,0.142
HCC-827,0.731,1.03,0.683,0.532,1.11,1.28,0.997,0.932,0.654,0.63,0.548,0.577,0.501,0.501,0.533,0.601,0.611,0.608,0.479,0.411
HOP-62,0.864,0.883,0.824,0.884,1,0.967,0.58,0.604,0.236,0.254,0.371,0.326,0.333,0.382,0.32,0.378,0.464,0.542,0.298,0.36
IA-LM,–,–,–,–,–,0.371,0.331,0.219,0.116,0.0809,–,–,–,–,–,0.85,0.729,0.783,0.348,0.738
LC-2-ad,0.927,0.881,1.06,0.868,1.16,0.291,–,0.428,0.389,0.262,0.844,0.885,0.894,0.889,0.947,0.825,0.749,0.747,0.864,0.852
LCLC-97TM1,0.774,0.853,0.836,0.749,0.871,0.252,0.151,0.169,0.145,0.12,0.208,0.156,0.166,–,0.191,0.383,0.416,0.319,0.256,0.093
LCLC-103H,0.914,0.961,0.877,0.877,0.997,0.611,0.583,0.602,0.577,0.498,0.714,0.625,0.604,0.669,0.69,0.823,0.743,0.647,0.571,0.395
LK-2,0.189,0.175,0.172,0.225,0.176,0.479,0.547,0.499,0.33,0.251,0.661,0.687,0.718,0.865,0.865,0.61,0.836,0.491,0.328,0.17
LOU-NH91,0.326,0.331,0.331,0.347,0.38,0.586,0.499,0.525,0.494,0.496,0.772,0.77,0.76,0.798,0.765,0.832,0.901,0.886,0.608,0.632
LU99A,–,0.268,0.212,0.175,0.286,0.299,0.285,0.269,0.222,0.179,0.518,0.51,0.531,–,0.498,0.208,0.232,0.216,0.181,0.172
LXF-289,0.663,0.685,0.668,0.73,0.818,0.9,0.851,0.749,0.673,0.613,0.632,0.629,0.66,0.678,0.665,1.21,0.986,1,0.973,0.695
NCI-H522,1.12,1.19,1.2,1.33,1.18,–,–,–,–,–,0.71,0.726,0.945,0.842,0.8,0.691,0.664,0.68,0.464,0.446
NCI-H1299,–,–,–,–,–,0.794,0.701,0.659,0.351,0.253,–,–,–,–,–,1.01,0.997,1.04,0.568,0.742
NCI-H1563,0.478,0.504,0.522,0.473,0.508,0.682,0.624,0.625,0.651,0.573,–,–,–,–,–,–,–,–,–,–
NCI-H1623,0.604,0.46,0.58,0.503,0.681,–,–,–,–,–,–,–,–,–,–,–,–,–,–,–
NCI-H1648,–,–,–,–,–,–,–,–,–,–,–,0.463,0.528,0.576,0.497,0.998,0.78,0.799,0.473,0.246
NCI-H1703,–,–,–,–,–,–,–,0.257,0.228,0.192,–,–,–,–,–,–,0.292,0.389,0.198,0.285
NCI-H2342,0.792,0.662,0.814,0.687,0.738,–,–,–,–,–,0.668,0.789,1.01,0.752,1.01,0.411,0.369,0.501,0.376,0.382
SW 900,0.193,0.183,0.137,0.195,0.167,–,–,–,–,–,0.554,0.846,0.682,0.72,0.813,1.22,0.853,0.689,0.502,0.424
